pIC50: −log10 of the molar value.
Tested on: U87MG cells
Assay: Cellular assay, inhibition of 2-HG production in U87MG cells
Type: cell-based
Conditions: Homo sapiens, U-87 MG, 48 h
How it was run: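 HT1080 or U87MG cells (U87MG kept with 500 ug/mL G418) seeded at 5000 cells/well and treated with compound at 0.2% final DMSO. Incubated 48 h at 37 °C. 2-HG inhibition determined by LC-MS. Viability read by CellTiter-Glo luminescence at 72 h post-dose.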

| Compound | pIC50 |
| --- | --- |
| N#Cc1ccnc(N2C(=O)CC[C@H]2C(=O)N(c2cc(F)cc(F)c2)[C@H](C(=O)NC2CC(F)(F)C2)c2ccccc2Cl)n1 [Compound 86, (S)—N—((S)-1-(2-Chlorophenyl)-2-((3,3-difluorocyclobutyl)amino)-2-oxoethyl)-1-(4-cyanopyrimidin-2-yl)-N-(3,5-difluorophenyl)-5-oxopyrrolidine-2-carboxamide] | > 7.00 |
| N#Cc1ccnc(N2C(=O)CC[C@H]2C(=O)N(c2cccc(F)c2)[C@H](C(=O)NC2CC(F)(F)C2)c2ccccc2Cl)n1 [Compound 68, (S)—N—((S)-1-(2-Chlorophenyl)-2-((3,3-difluorocyclobutyl)amino)-2-oxoethyl)-1-(4-cyanopyrimidin-2-yl)-N-(3-fluorophenyl)-5-oxopyrrolidine-2-carboxamide] | > 7.00 |
| CN(C)S(=O)(=O)c1cccc(N(C(=O)[C@@H]2CCC(=O)N2c2cc(C#N)ccn2)[C@H](C(=O)NC2CC(F)(F)C2)c2ccccc2Cl)c1 [Compound 156, (S)—N—((S)-1-(2-Chlorophenyl)-2-(3,3-difluorocyclobutylamino)-2-oxoethyl)-1-(4-cyanopyri-din-2-yl)-N-(3-(N,N-dimethylsulfamoyl)phenyl)-5-oxopyrrolidine-2-carboxamide] | > 7.00 |
| N#Cc1ccnc(N2C(=O)CN(CCO)C[C@H]2C(=O)N(c2cc(F)cc(F)c2)[C@H](C(=O)NC2CC(F)(F)C2)c2ccccc2Cl)c1 [Compound 107, (S)—N—((S)-1-(2-chlorophenyl)-2-((3,3-difluorocyclobutyl)amino)-2-oxoethyl)-1-(4-cyanopyridin-2-yl)-N-(3,5-difluorophenyl)-4-(2-hydroxyethyl)-6-oxopiperazine-2-carboxamide] | > 7.00 |
| N#Cc1ccnc(N2C(=O)OCC[C@H]2C(=O)N(c2cc(F)cc(F)c2)[C@H](C(=O)NC2CC(F)(F)C2)c2ccccc2Cl)c1 [Compound 133, (S)—N—((S)-1-(2-Chlorophenyl)-2-((3,3-difluorocyclobutyl)amino)-2-oxoethyl)-3-(4-cyanopyridin-2-yl)-N-(3,5-difluorophenyl)-2-oxo-1,3-oxazinane-4-carboxamide] | > 7.00 |
| CC(C)(O)c1cc(F)cc(N(C(=O)[C@@H]2COC(=O)N2c2cc(C#N)ccn2)C(C(=O)NC2CC(F)(F)C2)c2ccccc2Cl)c1 (mixture of isomers) [Compound 145, (4S)—N-(1-(2-Chlorophenyl)-2-(3,3-difluorocyclobutylamino)-2-oxoethyl)-3-(4-cyanopyridin-2-yl)-N-(3-fluoro-5-(2-hydroxypropan-2-yl)phenyl)-2-oxooxazolidine-4-carboxamide] | > 7.00 |
| N#Cc1ccc(N2C(=O)CC[C@H]2C(=O)N(c2cccc(F)c2)[C@H](C(=O)NC2CC(F)(F)C2)c2ccccc2Cl)nc1 [Compound 47] | 6.30 to 7.00 |
| N#Cc1ccnc(N2C(=O)CC[C@H]2C(=O)N(c2cncc(F)c2)[C@H](C(=O)NC2CC(F)(F)C2)c2ccccc2F)c1 [Compound 148, (S)-1-(4-Cyanopyridin-2-yl)-N—((S)-2-((3,3-difluorocyclobutyl)amino)-1-(2-fluorophenyl)-2-oxoethyl)-N-(5-fluoropyridin-3-yl)-5-oxopyrrolidine-2-carboxamide] | > 7.00 |
| N#Cc1ccnc(N2C(=O)CC[C@H]2C(=O)N(c2cccc(OCCO)c2)[C@H](C(=O)NC2CC(F)(F)C2)c2ccccc2Cl)c1 [Compound 130, (S)—N—((S)-1-(2-Chlorophenyl)-2-((3,3-difluorocyclobutyl)amino)-2-oxoethyl)-1-(4-cyanopyridin-2-yl)-N-(3-(2-hydroxyethoxy)phenyl)-5-oxopyrrolidine-2-carboxamide] | > 7.00 |
| N#Cc1ccnc(N2C(=O)[C@H](O)C[C@H]2C(=O)N(c2cc(F)cc(F)c2)[C@@H](C(=O)NC2CC(F)(F)C2)c2ccccc2Cl)n1 [Compound 116, (2S,4R)—N—((R)-1-(2-Chlorophenyl)-2-((3,3-difluorocyclobutyl)amino)-2-oxoethyl)-1-(4-cyanopyrimidin-2-yl)-N-(3,5-difluorophenyl)-4-hydroxy-5-oxopyrrolidine-2-carboxamide] | 6.30 to 7.00 |
| CC(C)(C)OC(=O)N1CC(=O)N(c2nccc(C#N)n2)[C@H](C(=O)N(c2cc(F)cc(F)c2)[C@H](C(=O)NC2CC(F)(F)C2)c2ccccc2Cl)C1 [Compound 98, (3S)-tert-butyl 3-((1-(2-chlorophenyl)-2-((3,3-difluorocyclobutyl)amino)-2-oxoethyl)(3,5-difluorophenyl)carbamoyl)-4-(4-cyanopyrimidin-2-yl)-5-oxopiperazine-1-carboxylate] | > 7.00 |
| N#Cc1ccnc(N2C(=O)OCC[C@H]2C(=O)N(c2cc(F)cc(F)c2)[C@H](C(=O)NC2CCC(F)(F)CC2)c2ccccc2Cl)c1 [Compound 139, (S)—N—((S)-1-(2-Chlorophenyl)-2-((4,4-difluorocyclohexyl)amino)-2-oxoethyl)-3-(4-cyanopyridin-2-yl)-N-(3,5-difluorophenyl)-2-oxo-1,3-oxazinane-4-carboxamide] | > 7.00 |

Continued, values first:

| pIC50 | Compound |
| --- | --- |
| > 7.00 | N#Cc1cc(F)cc(N(C(=O)[C@@H]2CCC(=O)N2c2cc(C#N)ccn2)[C@H](C(=O)NC2CC(F)(F)C2)c2ccccc2F)c1 [Compound 207, (S)—N-(3-Cyano-5-fluorophenyl)-1-(4-cyanopyridin-2-yl)-N—((S)-2-((3,3-difluorocyclobutyl)amino)-1-(2-fluorophenyl)-2-oxoethyl)-5-oxopyrrolidine-2-carboxamide] |
| > 7.00 | N#Cc1ccnc(N2C(=O)CC[C@H]2C(=O)N(c2cccc(CCO)c2)[C@H](C(=O)NC2CC(F)(F)C2)c2ccccc2Cl)c1 [Compound 160, (S)—N—((S)-1-(2-Chlorophenyl)-2-((3,3-difluorocyclobutyl)amino)-2-oxoethyl)-1-(4-cyanopyri-din-2-yl)-N-(3-(2-hydroxyethyl)phenyl)-5-oxopyrrolidine-2-carboxamide] |
| > 7.00 | N#Cc1ccnc(N2C(=O)[C@@H](O)C[C@H]2C(=O)N(c2cc(F)cc(F)c2)[C@H](C(=O)NC2CCC(F)(F)CC2)c2ccccc2Cl)c1 [Compound 174, (2S,4S)—N—((S)-1-(2-Chlorophenyl)-2-((4,4-difluorocyclohexyl)amino)-2-oxoethyl)-1-(4-cyanopyridin-2-yl)-N-(3,5-difluorophenyl)-4-hydroxy-5-oxopyrrolidine-2-carboxamide] |
| > 7.00 | N#Cc1ccnc(N2C(=O)CC[C@H]2C(=O)N(c2cc(F)ccc2F)[C@H](C(=O)NC2CC(F)(F)C2)c2ccccc2Cl)c1 [Compound 197, (S)—N—((S)-1-(2-Chlorophenyl)-2-((3,3-difluorocyclobutyl)amino)-2-oxoethyl)-1-(4-cyanopyridin-2-yl)-N-(2,5-difluorophenyl)-5-oxopyrrolidine-2-carboxamide] |
| > 7.00 | N#Cc1ccnc(N2C(=O)CC[C@H]2C(=O)N(c2ccc3[nH]ncc3c2)[C@H](C(=O)NC2CC(F)(F)C2)c2ccccc2Cl)c1 [Compound 175, (S)—N—((S)-1-(2-Chlorophenyl)-2-((3,3-difluorocyclobutyl)amino)-2-oxoethyl)-1-(4-cyanopyri-din-2-yl)-N-(1H-indazol-5-yl)-5-oxopyrrolidine-2-carboxamide] |
| > 7.00 | N#Cc1ccnc(N2C(=O)CC[C@H]2C(=O)N(c2cccc(C3CC3)c2)[C@H](C(=O)NC2CC(F)(F)C2)c2ccccc2Cl)n1 [Compound 182, (S)—N—((S)-1-(2-Chlorophenyl)-2-((3,3-difluorocyclobutyl)amino)-2-oxoethyl)-1-(4-cyanopyri-midin-2-yl)-N-(3-cyclopropylphenyl)-5-oxopyrrolidine-2-carboxamide] |
| > 7.00 | N#Cc1ccnc(N2C(=O)CC[C@H]2C(=O)N(c2cc(F)cc(F)c2)[C@H](C(=O)NC2CC(F)(F)C2)c2c(Cl)cccc2Cl)c1 [Compound 199, (S)-1-(4-Cyanopyridin-2-yl)-N—((S)-1-(2,6-dichlorophenyl)-2-((3,3-difluorocyclobutyl)amino)-2-oxoethyl)-N-(3,5-difluorophenyl)-5-oxopyrrolidine-2-carboxamide] |
| > 7.00 | N#Cc1ccnc(N2C(=O)CC[C@H]2C(=O)N(c2ccc3[nH]ncc3c2)[C@H](C(=O)NC2CCC(F)(F)CC2)c2ccccc2Cl)c1 [Compound 203, (S)—N—((S)-1-(2-Chlorophenyl)-2-((4,4-difluorocyclohexyl)amino)-2-oxoethyl)-1-(4-cyanopyridin-2-yl)-N-(1H-indazol-5-yl)-5-oxopyrrolidine-2-carboxamide] |
| > 7.00 | N#Cc1ccnc(N2C(=O)CC[C@H]2C(=O)N(c2cc(F)cc(F)c2)[C@H](C(=O)NC2CC(F)(F)C2)c2cc(Cl)ccc2Cl)c1 [Compound 201, (S)-1-(4-Cyanopyridin-2-yl)-N—((S)-1-(2,5-dichlorophenyl)-2-((3,3-difluorocyclobutyl)-amino)-2-oxoethyl)-N-(3,5-difluorophenyl)-5-oxopyrrolidine-2-carboxamide] |
| > 7.00 | CN(C)c1cccc(N(C(=O)[C@@H]2CCC(=O)N2c2cc(C#N)ccn2)[C@H](C(=O)NC2CC(F)(F)C2)c2ccccc2Cl)c1 [Compound 161, (S)—N—((S)-1-(2-Chlorophenyl)-2-(3,3-difluorocyclobutylamino)-2-oxoethyl)-1-(4-cyanopyri-din-2-yl)-N-(3-(dimethylamino)phenyl)-5-oxopyrrolidine-2-carboxamide] |
| > 7.00 | N#Cc1ccnc(N2C(=O)CC[C@H]2C(=O)N(c2cc(F)cc(F)c2)C(C(=O)NC2CC(F)(F)C2)c2cccc(Cl)c2Cl)c1 (stereo partly drawn) [Compound 195, (2S)-1-(4-Cyanopyridin-2-yl)-N-(1-(2,3-dichlorophenyl)-2-(3,3-difluoro-cyclobutylamino)-2-oxoethyl)-N-(3,5-difluorophenyl)-5-oxopyrrolidine-2-carboxamide] |
| > 7.00 | N#Cc1ccnc(N2C(=O)CC[C@H]2C(=O)N(c2cc(F)cc(C3CC3)c2)[C@H](C(=O)NC2CCC(F)(F)CC2)c2ccccc2Cl)c1 [Compound 202, (S)—N—((S)-1-(2-Chlorophenyl)-2-((4,4-difluorocyclohexyl)amino)-2-oxoethyl)-1-(4-cyanopyridin-2-yl)-N-(3-cyclopropyl-5-fluorophenyl)-5-oxopyrrolidine-2-carboxamide] |
